Read-outs that look alike come from different tables or passages of the source.
How the values were obtained:
GST-PPARG-LBD = GST-PPARG-LBD (Homo sapiens (Human), UniProt P37231); assay: Lanthascreen PPARG competitive binding assay (Invitrogen, TR-FRET); conditions: NA = not active, inc = incomplete curve, read-out: IC50 (nM) Lantha
In short: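 Values are fold change in 520 nm/490 nm FRET ratio relative to a 2% DMSO no-ligand control, excitation 340 nm. Compound dilutions starting at 10 μM competed against 5 nM Fluormone Pan-PPAR Green for GST-PPARG-LBD bound by 5 nM Tb anti-GST antibody. Incubation 2 h in the dark in assay buffer C, triplicate wells.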

[1] = target: Gal-4-PPAR (human PPAR LBD fused to GAL4 DNA-binding domain) (Homo sapiens (Human), UniProt P37231); assay: GAL4-PPARG LBD / UAS-luciferase transactivation assay in HEK 293T cells; type: cell-based
Chain of Gal-4-PPAR (human PPAR LBD fused to GAL4 DNA-binding domain) (P37231 238-503): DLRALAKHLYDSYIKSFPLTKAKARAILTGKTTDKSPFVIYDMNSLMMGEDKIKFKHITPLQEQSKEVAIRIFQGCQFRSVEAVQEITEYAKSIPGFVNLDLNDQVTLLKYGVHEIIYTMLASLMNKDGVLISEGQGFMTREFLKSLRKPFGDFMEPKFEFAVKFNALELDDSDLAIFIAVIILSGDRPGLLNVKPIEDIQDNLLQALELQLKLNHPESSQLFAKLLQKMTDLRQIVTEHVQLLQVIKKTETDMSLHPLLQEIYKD

[2] = Lanthascreen competitive binding
[3] = GAL4 transactivation, HEK 293T cells; NA = not active; read-out: EC50 (nM) GAL4
[4] = HEK-293T, 18 h; read-out: % transactivation at 10 μM (GAL4)
[5] = Lanthascreen PPARG competitive binding
[6] = HEK-293T, 18 h, read-out: % transactivation at 10 μM (GAL4)
[7] = GAL4 transactivation; read-out: EC50 (nM) GAL4

Chain of GST-PPARG-LBD (P37231 238-503): as above

| activation at 10 µM [1, 6] [%] | Structure (SMILES) | IC50 (GST-PPARG-LBD; [2]) [nM] | EC50 [1, 3] [nM] | activation at 10 µM [1, 4] [%] | IC50 (GST-PPARG-LBD; [5]) [nM] | EC50 [1] [nM] | EC50 [1, 7] [nM] |
| --- | --- | --- | --- | --- | --- | --- | --- |
| – | Cc1c(C)n(Cc2ccc(-c3ccccc3C(=O)O)cc2)c2ccc(C(=O)N[C@@H](C)[C@@H]3CCN(C(=O)OCc4ccccc4)C3)cc12 [Example 240, 4′-((5-(((S)-1-((R)-1-((benzyloxy)carbonyl)pyrrolidin-3-yl)ethyl)carbamoyl)-2,3-dimethyl-1H-indol-1-yl)methyl)-[1,1′-biphenyl]-2-carboxylic acid] | 58 | 1300 | 25 | – | – | – |
| – | Cc1c(C)n(Cc2ccc(-c3ccccc3C(N)=O)cc2)c2ccc(C(=O)N[C@@H](C)c3cccc(C(C)C)c3)cc12 [Example 315, (S)-1-((2′-Carbamoyl-[1,1′-biphenyl]-4-yl)methyl)-N-(1-(3-isopropylphenyl)ethyl)-2,3-dimethyl-1H-indole-5-carboxamide] | – | – | 2 | 62 | 137 | – |
| – | Cc1c(C)n(Cc2ccc(-c3ccccc3C(=O)O)cc2)c2ccc(C(=O)N[C@@H](C)c3c(F)cncc3F)cc12 [Example 216, (S)-4′-((5-((1-(3,5-difluoropyridin-4-yl)ethyl)carbamoyl)-2,3-dimethyl-1H-indol-1-yl)methyl)-[1,1′-biphenyl]-2-carboxylic acid] | 33 | 884 | 30 | – | – | – |
| – | Cc1c(C)n(Cc2ccc(-c3ccccc3C(=O)O)cc2)c2ccc(C(=O)N[C@@H](C)c3cccc4c3OCO4)cc12 [Example 143, (S)-4′-((5-((1-(benzo[d][1,3]dioxol-4-yl)ethyl)carbamoyl)-2,3-dimethyl-1H-indol-1-yl)methyl)-[1,1′-biphenyl]-2-carboxylic acid] | 10 | 189 | 45 | – | – | – |
| 20 | Cc1c(C)n(Cc2ccc(-c3ccccc3C(=O)O)cc2)c2ccc(C(=O)N[C@@H](C)c3c(F)ccc(F)c3F)cc12 [Example 236, (S)-4′-((2,3-dimethyl-5-((1-(2,3,6-trifluorophenyl)ethyl)carbamoyl)-1H-indol-1-yl)methyl)-[1,1′-biphenyl]-2-carboxylic acid] | 17 | 293 | – | – | – | – |
| – | Cc1c(C)n(Cc2ccc(-c3ccccc3C(=O)O)cc2)c2ccc(C(=O)N[C@@H](C)c3ccnc(Br)c3)cc12 [Example 267, (S)-4′-((5-(1-(2-bromopyridin-4-yl)ethylcarbamoyl)-2,3-dimethyl-1H-indol-1-yl)methyl)biphenyl-2-carboxylic acid] | 98 | 2490 | 40 | – | – | – |
| – | Cc1c(C)n(Cc2ccc(-c3ccccc3C(=O)O)cc2)c2ccc(C(=O)N[C@@H](C)[C@@H]3CCCN3C(=O)OCc3ccccc3)cc12 [Example 237, 4′-((5-(((S)-1-((S)-1-((benzyloxy)carbonyl)pyrrolidin-2-yl)ethyl)carbamoyl)-2,3-dimethyl-1H-indol-1-yl)methyl)-[1,1′-biphenyl]-2-carboxylic acid] | 118 | 417 | 30 | – | – | – |
| – | Cc1c(C)n(Cc2ccc(-c3ccccc3-c3nnn[nH]3)cc2)c2ccc(C(=O)N[C@@H](C)c3cccc(C4CC4)c3)cc12 [Example 188, (S)-1-((2′-(1H-tetrazol-5-yl)-[1,1′-biphenyl]-4-yl)methyl)-N-(1-(3-cyclopropylphenyl)ethyl)-2,3-dimethyl-1H-indole-5-carboxamide] | 10 | 3150 | 20 | – | – | – |
| – | COc1cc(C(F)(F)F)ccc1[C@@H](C)NC(=O)c1ccc2c(c1)c(C)c(C)n2Cc1ccc(-c2ccccc2C(=O)O)cc1 [Example 224, (R)-4′-((5-((1-(2-methoxy-4-(trifluoromethyl)phenyl)ethyl)carbamoyl)-2,3-dimethyl-1H-indol-1-yl)methyl)-[1,1′-biphenyl]-2-carboxylic acid] | 2 | 86 | 20 | – | – | – |
| – | Cc1c(C)n(Cc2ccc(-c3ccccc3C(=O)O)cc2)c2ccc(C(=O)N[C@@H](C)c3ccc(Cl)cc3Cl)cc12 [Example 303, (S)-4′-((5-((1-(2,4-Dichlorophenyl)ethyl)carbamoyl)-2,3-dimethyl-1H-indol-1-yl)methyl)-[1,1′-biphenyl]-2-carboxylic acid] | – | – | 25 | 4 | – | 219 |
| 60 | Cc1c(C)n(Cc2ccc(-c3ccccc3C(=O)O)cc2)c2ccc(C(=O)NC(C)(C)c3ccc(Br)cc3)cc12 [Example 180, 4′-((5-((2-(4-bromophenyl)propan-2-yl)carbamoyl)-2,3-dimethyl-1H-indol-1-yl)methyl)-[1,1′-biphenyl]-2-carboxylic acid] | 1 | 119 | – | – | – | – |
| – | Cc1c(C)n(Cc2ccc(-c3ccccc3C(=O)O)cc2)c2ccc(C(=O)N[C@@H](C)c3cccc(C4CC4)n3)cc12 [Example 274, (S)-4′-((5-(1-(6-cyclopropylpyridin-2-yl)ethylcarbamoyl)-2,3-dimethyl-1H-indol-1-yl)methyl)biphenyl-2-carboxylic acid] | – | – | 30 | 19 | – | 159 |
| – | Cc1c(C)n(Cc2ccc(-c3ccccc3C(=O)O)cc2)c2ccc(C(=O)NC(C)c3cccc(C4CC4)n3)cc12 (stereo not drawn) [Example 272, 4′-((5-(1-(6-cyclopropylpyridin-2-yl)ethylcarbamoyl)-2,3-dimethyl-1H-indol-1-yl)methyl)biphenyl-2-carboxylic acid] | < 1 | 2 | 20 | – | – | – |
| – | Cc1c(C)n(Cc2ccc(-c3ccccc3C(=O)O)cc2)c2ccc(C(=O)N[C@@H](C)c3ccc(C(F)(F)F)cc3)cc12 [Example 154, (S)-4′-((2,3-dimethyl-5-((1-(4-(trifluoromethyl)phenyl)ethyl)carbamoyl)-1H-indol-1-yl)methyl)-[1,1′-biphenyl]-2-carboxylic acid] | 61 | 522 | 5 | – | – | – |
| – | Cc1c(C)n(Cc2ccc(-c3ccccc3C(=O)O)cc2)c2ccc(C(=O)N[C@H](C)c3cccc(Br)c3)cc12 [Example 296, (R)-4′-((5-((1-(3-Bromophenyl)ethyl)carbamoyl)-2,3-dimethyl-1H-indol-1-yl)methyl)-[1,1′-biphenyl]-2-carboxylic acid] | – | – | 35 | < 1 | – | 69 |
| 10 | Cc1c(C)n(Cc2ccc(-c3ccccc3C(=O)O)cc2)c2ccc(C(=O)N[C@H](C)c3cccc(Cl)c3Cl)cc12 [Example 171, (R)-4′-((5-((1-(2,3-dichlorophenyl)ethyl)carbamoyl)-2,3-dimethyl-1H-indol-1-yl)methyl)-[1,1′-biphenyl]-2-carboxylic acid] | 5 | 388 | – | – | – | – |
| – | Cc1c(C)n(Cc2ccc(-c3ccccc3C(=O)O)cc2)c2ccc(C(=O)N[C@@H](C)c3ccc(C(F)(F)F)nc3)cc12 [Example 217, (S)-4′-((2,3-dimethyl-5-((1-(6-(trifluoromethyl)pyridin-3-yl)ethyl)carbamoyl)-1H-indol-1-yl)methyl)-[1,1′-biphenyl]-2-carboxylic acid] | 230 | 2800 | 15 | – | – | – |
| – | Cc1c(C)n(Cc2ccc(-c3ccccc3C(=O)NO)cc2)c2ccc(C(=O)N[C@@H](C)c3cccc(C(C)C)c3)cc12 [Example 313] | – | – | 4 | 77 | 242 | – |
| – | Cc1c(C)n(Cc2ccc(-c3ccccc3C(=O)O)cc2)c2ccc(C(=O)N[C@@H](C)c3ccnc4ccccc34)cc12 [Example 149, (S)-4′-((2,3-dimethyl-5-((1-(quinolin-4-yl)ethyl)carbamoyl)-1H-indol-1-yl)methyl)-[1,1′-biphenyl]-2-carboxylic acid] | 6 | 1680 | 15 | – | – | – |
| – | Cc1c(C)n(Cc2ccc(-c3ccccc3C(=O)O)cc2)c2ccc(C(=O)N[C@@H](C)c3ccnc(C4CC4)c3)cc12 [Example 268, (S)-4′-((5-(1-(2-cyclopropylpyridin-4-yl)ethylcarbamoyl)-2,3-dimethyl-1H-indol-1-yl)methyl)biphenyl-2-carboxylic acid] | 352 | 8970 | 20 | – | – | – |
| – | Cc1c(C)n(Cc2ccc(-c3ccccc3C(=O)O)cc2)c2ccc(C(=O)N[C@H](C)c3ccnc(Br)c3)cc12 [Example 269, (R)-4′-((5-(1-(2-bromopyridin-4-yl)ethylcarbamoyl)-2,3-dimethyl-1H-indol-1-yl)methyl)biphenyl-2-carboxylic acid] | 8 | 907 | 40 | – | – | – |
| – | Cc1c(C)n(Cc2ccc(-c3ccccc3C(=O)O)cc2)c2ccc(C(=O)N[C@H](C)C3COc4ccccc4O3)cc12 (stereo partly drawn) [Example 213, 4′-((5-(((1R)-1-(2,3-dihydrobenzo[b][1,4]dioxin-2-yl)ethyl)carbamoyl)-2,3-dimethyl-1H-indol-1-yl)methyl)-[1,1′-biphenyl]-2-carboxylic acid] | 3 | 672 | 40 | – | – | – |
| – | Cc1c(C)n(Cc2ccc(-c3ccccc3C(=O)O)cc2)c2ccc(C(=O)N[C@H](C)c3ccc(C4CC4)nc3)cc12 [Example 264, (R)-4′-((5-((1-(6-cyclopropylpyridin-3-yl)ethyl)carbamoyl)-2,3-dimethyl-1H-indol-1-yl)methyl)-[1,1′-biphenyl]-2-carboxylic acid] | 32 | 1990 | 35 | – | – | – |
| – | CC[C@H](NC(=O)c1ccc2c(ccn2Cc2ccccc2-c2cccc(C(=O)O)c2)c1)c1ccccc1 [Example 191, (S)-2′-((5-((1-phenylpropyl)carbamoyl)-1H-indol-1-yl)methyl)-[1,1′-biphenyl]-3-carboxylic acid] | 80 | 1000 | 20 | – | – | – |

— patent US8957093B2, “N-biphenylmethylindole modulators of PPARG” (The Scripps Research Institute, priority 2011, dated 2015)
